Laboratory results published in ChEMBL document CHEMBL1128572, “Synthesis and biology of 1D-3-deoxyphosphatidylinositol: a putative antimetabolite of phosphatidylinositol-3-phosphate and an inhibitor of cancer cell colony formation” (J Med Chem, 1995).

Columns and labels:
[1] = test system: HT-29; experiment: Inhibition of colony formation of […] human colon carcinoma cell lines; type: functional, cell-based
[2] = Inhibition of murine Phosphatidylinositol 3-kinase; set-up: species or system Mus musculus
[3] = Inhibition of murine Phosphatidylinositol 3-kinase (No effect); set-up: species or system Mus musculus

SMILES | IC50 [1] | IC50 [2] | IC50 [3]
CCCCCCCCCCCCCCCC(=O)OCC(COP(=O)(O)OC1C(O)C(O)C(O)C(F)C1O)OC(=O)CCCCCCCCCCCCCCC (centres undefined) | 37 µM | 30 µM | 
CCCCCCCCCCCCCCCC(=O)OCC(COP(=O)(O)O[C@H]1[C@@H](O)[C@@H](O)[C@H](O)C[C@H]1O)OC(=O)CCCCCCCCCCCCCCC (some centres undefined) | 35 µM |  | Not Active
